What all share (assay): Greenhouse postemergence herbicidal effect (visual injury)
What all share (format): in vivo

For test [1], the system named is LOLMG, Lolium multiflorum subsp. gaudini (annual ryegrass). From the text: (§1) Seeds of the desired test plant species were planted in a 90:10% v/v (volume/volume) mixture of PRO-MIX® BX (Premier Tech Horticulture, Quakertown, Pa., USA) and PROFILE® GREENS GRADE™ (Profile Products LLC, Buffalo Grove, Ill., USA) planting mixture, which typically has a pH of 5.2 to 6.2 and an organic matter content of at least 50 percent, in plastic pots with a surface area of 103.2 square centimeters (cm^2). In some aspects, to help ensure good germination and healthy plants, a fungicide treatment and/or other chemical or physical treatment was applied. The plants were grown for 7-36 days (d) in a greenhouse with an approximate 14-hour (h) photoperiod which was maintained at about 23° C. during the day and 22° C. during the night. Nutrients and water were added on a regular basis and supplemental lighting was provided with overhead metal halide 1000-Watt lamps as necessary. The plants were employed for testing when they reached the second or third true leaf stage.
(§2) Emulsifiable concentrates of each of each pyridine carboxylate herbicide (Compound A or Compound B) were prepared at 100 grams acid equivalent per liter (g ae/L). The emulsifiable concentrates also included a safener, cloquintocet-mexyl, at 120 grams active ingredient per liter (g ai/L), unless otherwise noted below. An aliquot of each emulsifiable concentrate was placed in a 25 mL glass vial and diluted with an aqueous mixture of 1.25% (v/v) ACTIROB® B esterified rapeseed oil (Bayer Crop Science, Research Triangle Park, N.C., USA) or MSO® Concentrate with LECI-TECH® methylated soybean oil (Loveland Products, Loveland, Colo., USA) to obtain concentrated stock solutions at the highest application rate for each herbicide, based upon a 12 milliliter (mL) application volume at a rate of 187 liters per hectare (L/ha). The concentrated stock solutions were further diluted with an aqueous mixture of 1.25% v/v ACTIROB® B or MSO® Concentrate with LECI-TECH® to obtain stock solutions at reduced application rates for each herbicide. Spray solutions of the herbicide combinations (Compound A or Compound B plus ACCase inhibitor herbicide) were prepared by adding weighed amounts or aliquots of the ACCase inhibitor herbicide to the stock solutions of Compound A or Compound B to form 12-mL spray solutions in two-way combinations.
(§3) The spray solutions were applied to the plant material with an overhead Mandel track sprayer equipped with 8002E nozzles calibrated to deliver 187 L/ha over an application area of 0.503 square meters (m^2) at a spray height of 18 inches (43 centimeters (cm)) above the average plant canopy. Control plants were sprayed in the same manner with the solvent blank. All pyridine carboxylate herbicide (component a) application rates are given as “g ae/ha” and all ACCase inhibitor herbicide (component b) application rates are given as “g ai/ha.”
(§4) The treated plants and control plants were placed in a greenhouse as described above and watered by sub-irrigation to prevent wash-off of the test compounds. After 20-22 d, the condition of the test plants as compared with that of the control plants was determined visually and scored on a scale of 0 to 100 percent where 0 corresponds to no injury and 100 corresponds to complete kill.

For test [2], the system named is SETFA, Setaria faberi (giant foxtail).
Source text: as §1, §2, §3, §4

For test [3], the system named is ORYSA, Oryza sativa (common rice).
Source text: as §1, §2, §3, §4

The test system of test [4] is ZEAMX, Zea mays (maize).
Source text: as §1, §2, §3, §4

Test [5] deals with SORVU, Sorghum vulgare (grain sorghum).
Source text: as §1, §2, §3, §4

Test [6] deals with LEFCH, Leptochloa chinensis (Chinese sprangletop).
Source text: as §1, §2, §3, §4

Test [7] relates to CYPES, Cyperus esculentus (nutsedge).
Source text: as §1, §2, §3, §4

Test [8] relates to LOLMU, Lolium multiflorum (Italian ryegrass).
Source text: as §1, §2, §3, §4

Test [9] concerns DIGSA, Digitaria sanguinalis (large crabgrass).
Source text: as §1, §2, §3, §4

Test [10] concerns ECHCG, Echinochloa crus-galli (barnyardgrass).
Source text: as §1, §2, §3, §4

Test [11] concerns ALOMY, Alopecurus myosuroides (blackgrass).
Source text: as §1, §2, §3, §4

Test [12] concerns AVEFA, Avena fatua (wild oat).
Source text: as §1, §2, §3, §4

Test [13] has as its system STEME, Stellaria media (chickweed).
Source text: as §1, §2, §3, §4

Test [14] concerns RUMOB, Rumex obtusifolius (broad-leaf dock).
Source text: as §1, §2, §3, §4

Test [15] deals with BRSNW, Brassica napus (winter rape).
Source text: as §1, §2, §3, §4

For test [16], the system named is GLXMA, Glycine max (soybean).
Source text: as §1, §2, §3, §4

For test [17], the system named is HELAN, Helianthus annuus (common sunflower).
Source text: as §1, §2, §3, §4

In test [18] the test system is POLCO, Polygonum convolvulus (wild buckwheat).
Source text: as §1, §2, §3, §4

Test [19] deals with ABUTH, Abutilon theophrasti (velvetleaf).
Source text: as §1, §2, §3, §4

The test system of test [20] is IPOHE, Ipomoea hederacea (ivyleaf morningglory).
Source text: as §1, §2, §3, §4

The test system of test [21] is CIRAR, Cirsium arvense (Canadian thistle).
Source text: as §1, §2, §3, §4

Test [22] has as its system KCHSC, Kochia scoparia (kochia).
Source text: as §1, §2, §3, §4

Test [23] has as its system VIOTR, Viola tricolor (wild pansy).
Source text: as §1, §2, §3, §4

Test [24] has as its system BRSNN, Brassica napus (spring rape). As to conditions: 70 g ai/ha.
Source text: as §1, §2, §3, §4

Turning to `C#CCOC(=O)[C@@H](C)Oc1ccc(Oc2ncc(Cl)cc2F)cc1`, the “% visual injury, Obs” value in test [1] (30 g ai/ha) is 15%; in test [2] (30 g ai/ha) it was 98%; in [3] (30 g ai/ha), 83%; in test [4] (30 g ai/ha), 90%.

As for `C#CCOC(=O)c1nc(-c2ccc3cc[nH]c3c2F)c(F)c(N)c1Cl` [Compound B, propargyl 4-amino-3-chloro-5-fluoro-6-(7-fluoro-1H-indol-6-yl)pyridine-2-carboxylate], the “% visual injury, Obs” value came out at 10% in [5] (7.5 g ae/ha, with cloquintocet-mexyl) and 20% in test [5] (10 g ae/ha, with cloquintocet-mexyl).

`CCc1cc(C)cc(CC)c1-c1c(OC(=O)C(C)(C)C)n2n(c1=O)CCOCC2` [Pinoxaden]: the “% visual injury, Obs” value is reported as 94% in test [1] (30 g ai/ha), 10% in test [2] (30 g ai/ha), 99% in [3] (30 g ai/ha) and 5% in test [4] (30 g ai/ha).

In the case of `COC(=O)[C@@H](C)Oc1ccc(Oc2ncc(C(F)(F)F)cc2Cl)cc1` [Haloxyfop-R-methyl, reference compound], the “% visual injury, Obs” value came out at 100% in test [6] (LEFCH, Compound A 0 g/ha, Haloxyfop-R-methyl 70 g/ha) and 100% in test [2] (SETFA, Compound A 0 g/ha, Haloxyfop-R-methyl 70 g/ha).

With `CCOC(=O)[C@@H](C)Oc1ccc(Oc2cnc3cc(Cl)ccc3n2)cc1` [Quizalofop-P-ethyl, reference compound], the “% visual injury, Obs” value in test [6] (LEFCH, Compound A 0 g/ha, Quizalofop-P-ethyl 75 g/ha) is given as 100%; in [2] (SETFA, Compound A 0 g/ha, Quizalofop-P-ethyl 75 g/ha) it was 100%.

Consider `CCON=C(CC)C1=C(O)CC(c2c(C)cc(C)cc2C)CC1=O` (stereo not shown) [Tralkoxydim, 2-[1-(ethoxyimino)propyl]-3-hydroxy-5-mesitylcyclohex-2-enone], for which the “% visual injury, Obs” value was 70% in test [1] (100 g ai/ha), 65% in [5] (100 g ai/ha) and 40% in test [2] (100 g ai/ha).

For the molecule Fenoxaprop, the “% visual injury, Obs” value was 0% in test [7] (46 g ai/ha); 5% in test [8] (46 g ai/ha); 0% in [1] (46 g ai/ha); 96% in [9] (46 g ai/ha); 100% in test [2] (46 g ai/ha); 35% in test [3] (46 g ai/ha). The “% visual injury, Obs” value is given as 100% in [10] (46 g ai/ha), 100% in test [4] (46 g ai/ha), 0% in test [11] (46 g ai/ha) and 68% in test [12] (46 g ai/ha).

Regarding Fluazifop [reference compound], the “% visual injury, Obs” value amounted to 0% in test [13] (STEME, Compound A 0 g/ha, Fluazifop 105 g/ha); 0% in test [14] (RUMOB, Compound A 0 g/ha, Fluazifop 105 g/ha); 0% in test [15] (BRSNW, Compound A 0 g/ha, Fluazifop 105 g/ha); 28% in [16] (GLXMA, Compound A 0 g/ha, Fluazifop 105 g/ha); 5% in [7] (105 g ai/ha); 0% in [7] (CYPES, Compound A 0 g/ha, Fluazifop 105 g/ha). The “% visual injury, Obs” value in test [17] (HELAN, Compound A 0 g/ha, Fluazifop 105 g/ha) is given as 0%; in test [8] (105 g ai/ha) it was 80%; in test [8] (LOLMU, Compound A 0 g/ha, Fluazifop 105 g/ha), 88%; in test [18] (POLCO, Compound A 0 g/ha, Fluazifop 105 g/ha), 0%; in [6] (105 g ai/ha), 100%; in test [6] (LEFCH, Compound A 0 g/ha, Fluazifop 105 g/ha), 98%. Also, the “% visual injury, Obs” value was found to be 0% in test [19] (ABUTH, Compound A 0 g/ha, Fluazifop 105 g/ha); 100% in test [5] (SORVU, Compound A 0 g/ha, Fluazifop 105 g/ha); 0% in [20] (IPOHE, Compound A 0 g/ha, Fluazifop 105 g/ha); 5% in test [21] (CIRAR, Compound A 0 g/ha, Fluazifop 105 g/ha); 95% in test [9] (105 g ai/ha); 95% in test [9] (DIGSA, Compound A 0 g/ha, Fluazifop 105 g/ha). Also, the “% visual injury, Obs” value in [2] (105 g ai/ha) is listed as 90%; in test [2] (SETFA, Compound A 0 g/ha, Fluazifop 105 g/ha), 85%; in test [10] (105 g ai/ha), 95%; in test [10] (ECHCG, Compound A 0 g/ha, Fluazifop 105 g/ha), 95%; in test [22] (KCHSC, Compound A 0 g/ha, Fluazifop 105 g/ha), 0%; in test [11] (105 g ai/ha), 93%. Besides, the “% visual injury, Obs” value in test [11] (ALOMY, Compound A 0 g/ha, Fluazifop 105 g/ha) came to 85%; in test [12] (105 g ai/ha), 93%; in test [12] (AVEFA, Compound A 0 g/ha, Fluazifop 105 g/ha), 95%; in [23] (VIOTR, Compound A 0 g/ha, Fluazifop 105 g/ha), 3%.

In the case of `CCSC(C)CC1CC(=O)C(C(CC)=NOC/C=C/Cl)=C(O)C1` (stereo not shown) [Clethodim, reference compound], the “% visual injury, Obs” value worked out at 0% in [13] (70 g ai/ha); 0% in [14] (70 g ai/ha); 0% in test [15] (70 g ai/ha); 5% in test [16] (70 g ai/ha); 0% in test [17] (70 g ai/ha); 0% in [18] (70 g ai/ha). Also, the “% visual injury, Obs” value in [6] (70 g ai/ha) is given as 95%; in test [19] (70 g ai/ha), 0%; in test [5] (70 g ai/ha) it was 98%; in test [20] (70 g ai/ha), 0%; in test [21] (70 g ai/ha), 0%; in [2] (70 g ai/ha), 90%. For the same molecule, the “% visual injury, Obs” value in test [22] (70 g ai/ha) and in test [23] (70 g ai/ha) was 0% throughout.

As to `CCCC(=NOCC)C1=C(O)CC(CC(C)SCC)CC1=O` (stereo not shown) [Sethoxydim, reference compound], the “% visual injury, Obs” value in test [13] (70 g ai/ha), in test [14] (70 g ai/ha), in [24] and in test [22] (70 g ai/ha) was 0% throughout.

Source of the values: US20210392892A1, “COMPOSITIONS COMPRISING PYRIDINE CARBOXYLATE HERBICIDES AND ACETYL COA CARBOXYLASE (ACCASE) INHIBITOR HERBICIDES” (Corteva Agriscience LLC, priority 2018, published 2021).
